Assay results published in patent US4066635A, “L-Pyroglutamyl-L-histidyl-L-prolyl-beta-alaninamide and salts” (Hoffmann-La Roche Inc., priority 1976, dated 1978).
Non-standard residues stand in square brackets, D forms with d. Residues, ends and D or L forms follow the SMILES beside them. pGlu = O=C1CC[C@@H](C(=O)O)N1; βAla = NCCC(=O)O

Tests used:
[1] = system: mice; assay: Locomotor activity in mice; assay type: in vivo, mouse
[2] = system: mouse; assay: Toxicity (LD 10, LD 50) in the mouse; assay type: in vivo; settings: p.o.
[3] = Toxicity (LD 10, LD 50) in the mouse; assay type: in vivo; settings: in vivo, iv
[4] = system: noradrenalin (NA) in the entire brain of male mice; assay: Lowering of noradrenalin (NA) in entire brain of mice after FLA 63 (FLA 63-induced NA-lowering); assay type: in vivo, mouse
Experimental: The action of antidepressants can be explained by the fact that such substances normalise the activity of noradrenergic neurones in the brain, this activity being altered in the case of depressive illness. […] If a test substance has NA-liberating action, then this manifests itself in an intensification of the FLA63-induced NA-lowering.
In order to determine the antidepressant action of the compound of formula I hereinbefore, the lowering of NA in the entire brain of male mice was determined 90 minutes after the i.p. injection of FLA 63 (5 mg/kg).

NC(=O)CCNC(=O)[C@@H]1CCCN1C(=O)[C@H](Cc1c[nH]cn1)NC(=O)[C@@H]1CCC(=O)N1 [compound of formula I, L-pyroglutamyl-L-histidyl-L-prolyl-β-alaninamide] ([pGlu]HP[βAla]-NH2)
locomotor activity in mice (in words) [1]: increase in the locomotor activity
LD 10 [2]: above 8 g/kg
LD50 [3]: > 4000 mg/kg
Noradrenalin (%) ([4]; FLA 63 5 mg/kg i.p. plus test substance injected simultaneously, 90 minutes, entire brain, male mice, FLA 63 alone = 100%): 82.2 ± 2.6%
liberation of NA in the brain of mice (in words) ([4]; mice): increases the liberation of NA
FLA 63-induced NA-lowering (in words) ([4]; simultaneous injection with FLA 63 (5 mg/kg i.p.), 90 minutes, male mice): significant acceleration of the FLA 63-induced NA-lowering
